Source: patent US12247015B2, “3-amino-4H-benzo[e][1,2,4]thiadiazine 1,1-dioxide derivatives as inhibitors of MRGX2” (Solent Therapeutics, LLC, priority 2019, dated 2025)

Target: hMRGX2 (CHO-K1 cells overexpressing MRGX2) (Homo sapiens (Human), UniProt Q96LB1)
Experiment: In vitro inhibition (EC50) of intracellular calcium flux, FLIPR Tetra, substance P stimulation
Assay type: cell-based
Conditions: stimulated with MRGX2 ligand substance P, FLIPR Calcium 5, read-out: hMRGX2 Cellular Potency (pEC50) (converted)
Procedure: In Vitro Inhibition (EC50) of Intracellular Calcium Flux
The release of intracellular calcium following stimulation of cells with substance P in the presence or absence of inhibitor compounds was measured using the FLIPR Tetra® system. CHO-K1 cells overexpressing MRGX2 were seeded into 384-well plates (Black clear bottom, TC-treated, Fisher #07-200-655) and incubated overnight to allow for cell attachment. Media was removed, and 1× loading buffer (FLIPR® Calcium 5 assay solution, Molecular Devices, per manufacturer specifications) was added. The plates were incubated at 37° C. for 30 minutes. Test compounds were added to cells (11-point dose response, 10 µM maximum concentration) and fluorescence measured (120 seconds, in real time) using the FLIPR Tetra® system. Immediately following, MRGX2 ligand substance P was added at a final concentration of 1 µM and fluorescence measured (120 seconds, in real time) using the FLIPR Tetra® system. The data for the examples are reported as pEC50.

Chain of hMRGX2 (CHO-K1 cells overexpressing MRGX2) (Q96LB1 whole entry): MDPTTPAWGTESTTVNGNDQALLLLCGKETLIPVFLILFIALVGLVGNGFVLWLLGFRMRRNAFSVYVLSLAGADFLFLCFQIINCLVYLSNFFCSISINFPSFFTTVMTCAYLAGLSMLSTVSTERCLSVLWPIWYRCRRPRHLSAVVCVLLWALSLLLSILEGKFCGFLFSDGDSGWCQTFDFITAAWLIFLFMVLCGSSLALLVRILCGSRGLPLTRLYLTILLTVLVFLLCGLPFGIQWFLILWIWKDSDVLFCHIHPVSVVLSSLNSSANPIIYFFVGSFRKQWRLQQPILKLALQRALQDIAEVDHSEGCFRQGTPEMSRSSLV

EC50 [nM] | SMILES
35.2 | CO[C@@H](C)CCNC1=NS(=O)(=O)c2cccc(-c3cccc(F)c3Cl)c2N1 [Example 155, (S)-5-(2-chloro-3-fluorophenyl)-3-((3-methoxybutyl)amino)-4H-benzo[e][1,2,4]thiadiazine 1,1-dioxide]
30.3 | COc1cccnc1CNC1=NS(=O)(=O)c2cccc(-c3cccc(F)c3Cl)c2N1 [Example 122, 5-(2-chloro-3-fluorophenyl)-3-(((3-methoxypyridin-2-yl)methyl)amino)-4H-benzo[e][1,2,4]thiadiazine 1,1-dioxide]
70 | N#Cc1c(F)cccc1-c1cccc2c1NC(NCc1nccs1)=NS2(=O)=O [Example 126, 2-(1,1-dioxido-3-((thiazol-2-ylmethyl)amino)-4H-benzo[e][1,2,4]thiadiazin-5-yl)-6-fluorobenzonitrile]
70.8 | O=S1(=O)N=C(NCC2CC2)Nc2c(-c3ccnc(F)c3Cl)cccc21 [Example 50, 5-(3-chloro-2-fluoropyridin-4-yl)-3-((cyclopropylmethyl)amino)-4H-benzo[e][1,2,4]thiadiazine 1,1-dioxide]
26.4 | O=S1(=O)N=C(NCc2ccccn2)Nc2c(-c3ccccc3Cl)cccc21 [Example 41, 5-(2-chlorophenyl)-3-((pyridin-2-ylmethyl)amino)-4H-benzo[e][1,2,4]thiadiazine 1,1-dioxide]
27.3 | COC(C)CCNC1=NS(=O)(=O)c2cccc(-c3cccc(F)c3Cl)c2N1 (racemic) [Example 153, 5-(2-chloro-3-fluorophenyl)-3-((3-methoxybutyl)amino)-4H-benzo[e][1,2,4]thiadiazine 1,1-dioxide]
443 | CCNC1=NS(=O)(=O)c2cccc(-c3cc(F)ccc3F)c2N1 [Example 143, 5-(2,5-difluorophenyl)-3-(ethylamino)-4H-benzo[e][1,2,4]thiadiazine 1,1-dioxide]
32.2 | CO[C@H](C)CCNC1=NS(=O)(=O)c2cccc(-c3cccc(F)c3Cl)c2N1 (single isomer, unassigned) [Example 154]
24.2 | O=S1(=O)N=C(NCc2nccs2)Nc2c(-c3ccnc(F)c3Cl)cccc21 [Example 49, 5-(3-chloro-2-fluoropyridin-4-yl)-3-((thiazol-2-ylmethyl)amino)-4H-benzo[e][1,2,4]thiadiazine 1,1-dioxide]
350 | CNC1=NS(=O)(=O)c2cccc(-c3cccc(F)c3C)c2N1 [Example 95, 5-(3-fluoro-2-methylphenyl)-3-(methylamino)-4H-benzo[e][1,2,4]thiadiazine 1,1-dioxide]
423 | O=S1(=O)N=C(NCc2ccccn2)Nc2c(-c3cc(F)cc(F)c3)cccc21 [Example 83, 5-(3,5-difluorophenyl)-3-((pyridin-2-ylmethyl)amino)-4H-benzo[e][1,2,4]thiadiazine 1,1-dioxide]
57.9 | COc1cccc(CCNC2=NS(=O)(=O)c3cccc(-c4cccc(F)c4Cl)c3N2)c1 [Example 70, 5-(2-chloro-3-fluorophenyl)-3-((3-methoxyphenethyl)amino)-4H-benzo[e][1,2,4]thiadiazine 1,1-dioxide]
394 | COC1CC(NC2=NS(=O)(=O)c3cccc(-c4cccc(F)c4Cl)c3N2)C1 (stereo not shown) [Example 167, 5-(2-chloro-3-fluorophenyl)-3-((3-methoxycyclobutyl)amino)-4H-benzo[e][1,2,4]thiadiazine 1,1-dioxide]
394 | COCCNC1=NS(=O)(=O)c2cccc(-c3cccc(F)c3F)c2N1 [Example 37, 5-(2,3-difluorophenyl)-3-((2-methoxyethyl)amino)-4H-benzo[e][1,2,4]thiadiazine 1,1-dioxide]
638 | COCCNC1=NS(=O)(=O)c2cccc(-c3ccc(F)c(F)c3C)c2N1 [Example 170, 5-(3,4-difluoro-2-methylphenyl)-3-((2-methoxyethyl)amino)-4H-benzo[e][1,2,4]thiadiazine, 1,1-dioxide]
93.3 | CO[C@H](C)CNC1=NS(=O)(=O)c2cccc(-c3cccc(F)c3Cl)c2N1 [Example 47, (R)-5-(2-chloro-3-fluorophenyl)-3-((2-methoxypropyl)amino)-4H-benzo[e][1,2,4]thiadiazine 1,1-dioxide]
746 | Cc1cc(NC2=NS(=O)(=O)c3cccc(-c4cccc(F)c4Cl)c3N2)nn1C(C)C [Example 74, 5-(2-chloro-3-fluorophenyl)-3-((1-isopropyl-5-methyl-1H-pyrazol-3-yl)amino)-4H-benzo[e][1,2,4]thiadiazine 1,1-dioxide]
29.9 | O=S1(=O)N=C(NCc2ccccn2)Nc2c(-c3cccc(F)c3Cl)cccc21 [Example 31, 5-(2-chloro-3-fluorophenyl)-3-((pyridin-2-ylmethyl)amino)-4H-benzo[e][1,2,4]thiadiazine 1,1-dioxide]
305 | O=S1(=O)N=C(NCCF)Nc2c(-c3ccccc3Cl)cccc21 [Example 45, 5-(2-chlorophenyl)-3-((2-fluoroethyl)amino)-4H-benzo[e][1,2,4]thiadiazine 1,1-dioxide]

More lines, now with the values behind:

SMILES | EC50 [nM]
COc1cccc(CNC2=NS(=O)(=O)c3cccc(C4CC4)c3N2)n1 [Example 120, 5-cyclopropyl-3-(((6-methoxypyridin-2-yl)methyl)amino)-4H-benzo[e][1,2,4]thiadiazine 1,1-dioxide] | 578
COC(C)CNC1=NS(=O)(=O)c2cccc(-c3cccc(F)c3F)c2N1 (racemic) [Example 23, 5-(2,3-difluorophenyl)-3-((2-methoxypropyl)amino)-4H-benzo[e][1,2,4]thiadiazine 1,1-dioxide] | 41.1
COC(C)CNC1=NS(=O)(=O)c2cccc(-c3cn(C)nc3C)c2N1 (stereo not shown) [Example 60, 5-(1,3-dimethyl-1H-pyrazol-4-yl)-3-((2-methoxypropyl)amino)-4H-benzo[e][1,2,4]thiadiazine 1,1-dioxide] | 865
COC(C)CNC1=NS(=O)(=O)c2cccc(-c3cccc(F)c3C#N)c2N1 (stereo not shown) [Example 150, 2-fluoro-6-(3-((2-methoxypropyl)amino)-1,1-dioxido-4H-benzo[e][1,2,4]thiadiazin-5-yl)benzonitrile] | 416
CO[C@H](C)CNC1=NS(=O)(=O)c2cccc(-c3cc(F)cc(F)c3)c2N1 (single isomer, unassigned) [Example 85] | 249
COC(C)CNC1=NS(=O)(=O)c2cccc(-c3cc(F)cc(F)c3F)c2N1 (stereo not shown) [Example 127, 3-((2-methoxypropyl)amino)-5-(2,3,5-trifluorophenyl)-4H-benzo[e][1,2,4]thiadiazine 1,1-dioxide] | 87.1
COCCNC1=NS(=O)(=O)c2cccc(-c3ccccc3C3CC3)c2N1 [Example 63, 5-(2-cyclopropylphenyl)-3-((2-methoxyethyl)amino)-4H-benzo[e][1,2,4]thiadiazine 1,1-dioxide] | 953
COCCNC1=NS(=O)(=O)c2cccc(-c3cc(C(F)(F)F)ccc3Cl)c2N1 [Example 134, 5-(2-chloro-5-(trifluoromethyl)phenyl)-3-((2-methoxyethyl)amino)-4H-benzo[e][1,2,4]thiadiazine 1,1-dioxide] | 723
CNC1=NS(=O)(=O)c2ccc(F)c(-c3ccccc3Cl)c2N1 [Example 138, 5-(2-chlorophenyl)-6-fluoro-3-(methylamino)-4H-benzo[e][1,2,4]thiadiazine 1,1-dioxide] | 190
O=S1(=O)N=C(NCC2CCC2)Nc2c(-c3cc(F)cc(F)c3)cccc21 [Example 81, 3-((cyclobutylmethyl)amino)-5-(3,5-difluorophenyl)-4H-benzo[e][1,2,4]thiadiazine 1,1-dioxide] | 384
CC(C)c1ccc(NC2=NS(=O)(=O)c3cccc(-c4ccccc4Cl)c3N2)cn1 [Example 117, 5-(2-chlorophenyl)-3-((6-isopropylpyridin-3-yl)amino)-4H-benzo[e][1,2,4]thiadiazine 1,1-dioxide] | 197
CC(C)c1ccc(NC2=NS(=O)(=O)c3cccc(-c4cnn(C(F)F)c4)c3N2)cc1 [Example 99, 5-(1-(difluoromethyl)-1H-pyrazol-4-yl)-3-((4-isopropylphenyl)amino)-4H-benzo[e][1,2,4]thiadiazine 1,1-dioxide] | 760
CNC1=NS(=O)(=O)c2cccc(-c3cc(Cl)ccc3C#N)c2N1 [Example 90, 4-chloro-2-(3-(methylamino)-1,1-dioxido-4H-benzo[e][1,2,4]thiadiazin-5-yl)benzonitrile] | 973
O=S1(=O)N=C(NCc2ccccc2F)Nc2c(-c3cc(F)cc(F)c3)cccc21 [Example 77, 5-(3,5-difluorophenyl)-3-((2-fluorobenzyl)amino)-4H-benzo[e][1,2,4]thiadiazine 1,1-dioxide] | 34.9
O=S1(=O)N=C(NCc2ccc(F)cc2)Nc2c(-c3cc(F)cc(F)c3)cccc21 [Example 75, 5-(3,5-difluorophenyl)-3-((4-fluorobenzyl)amino)-4H-benzo[e][1,2,4]thiadiazine 1,1-dioxide] | 34.6
CC(C)c1ccc(NC2=NS(=O)(=O)c3cccc(C4CCC4)c3N2)cc1 [Example 111, 5-cyclobutyl-3-((4-isopropylphenyl)amino)-4H-benzo[e][1,2,4]thiadiazine 1,1-dioxide] | 106
COC(C)CNC1=NS(=O)(=O)c2cccc(-c3ccccc3C#N)c2N1 (stereo not shown) [Example 145, 2-(3-((2-methoxypropyl)amino)-1,1-dioxido-4H-benzo[e][1,2,4]thiadiazin-5-yl)benzonitrile] | 141
CCNC1=NS(=O)(=O)c2cc(F)cc(-c3ccccc3Cl)c2N1 [Example 15, 5-(2-chlorophenyl)-3-(ethylamino)-7-fluoro-4H-benzo[e][1,2,4]thiadiazine 1,1-dioxide] | 62.4
